Among the data in patent US20240317708A1, “INHIBITORS OF TRANSGLUTAMINASES” (ZEDIRA GMBH, priority 2021, published 2024) are logD, IC50 and Papp values, retold here.

As a reminder, the logD is the decadic logarithm of the distribution of all forms, ionised or not, between an organic phase and buffer at a given pH. The IC50 is the concentration at which inhibition is half-maximal. Broadly, the Papp is the rate of passage across a membrane or cell layer, normalised by area and donor concentration.

Data set [1] is described as follows: Log D shake flask method (octanol / PBS pH 7.4, HPLC). Particulars: octanol/phosphate-buffered saline (PBS); octanol / PBS pH 7.4, shake flask. The data set is classed as physicochemical. The method, then: In order to classify the inventive compounds according to their lipophilicity, Log D values (distribution coefficient) were determined by means of the well-established shake flask method, measuring the partition of a compound between an octanol and phosphate-buffered saline (PBS, pH 7.4) by HPLC.

The target in data set [2] is T1, recombinant human transglutaminase 2 (Homo sapiens, UniProt P21980).
T1 construct: purchased Zedira T022
T1 sequence (P21980 1-687): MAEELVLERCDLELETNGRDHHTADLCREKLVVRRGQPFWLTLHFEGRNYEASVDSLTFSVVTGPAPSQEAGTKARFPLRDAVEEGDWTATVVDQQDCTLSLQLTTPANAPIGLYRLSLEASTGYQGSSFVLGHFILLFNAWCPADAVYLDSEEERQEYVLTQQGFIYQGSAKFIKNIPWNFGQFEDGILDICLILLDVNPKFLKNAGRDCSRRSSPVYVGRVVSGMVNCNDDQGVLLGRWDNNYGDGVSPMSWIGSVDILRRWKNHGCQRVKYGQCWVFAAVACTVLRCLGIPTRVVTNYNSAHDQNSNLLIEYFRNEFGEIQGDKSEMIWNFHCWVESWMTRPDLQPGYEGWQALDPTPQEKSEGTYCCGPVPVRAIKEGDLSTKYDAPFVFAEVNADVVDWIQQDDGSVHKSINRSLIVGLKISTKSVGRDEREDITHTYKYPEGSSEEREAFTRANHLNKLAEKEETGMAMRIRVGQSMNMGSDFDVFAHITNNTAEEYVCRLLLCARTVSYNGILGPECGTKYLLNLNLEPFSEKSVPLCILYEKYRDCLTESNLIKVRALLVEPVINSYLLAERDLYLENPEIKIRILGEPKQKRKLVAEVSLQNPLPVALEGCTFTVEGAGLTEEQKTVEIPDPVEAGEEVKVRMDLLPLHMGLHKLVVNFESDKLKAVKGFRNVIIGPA
Kind of data set: Transglutaminase assay (dansylcadaverine incorporation into dimethylcasein, DCC-assay). As to conditions: recombinant human TG2 10 nM, dansylcadaverine/dimethylcasein, 37° C. In kind it is biochemical. In outline:
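IC50 derived from fluorescence slope between 20 and 30 min (λex 330 nm, λem 500 nm, 37 °C), expressed relative to a 2% DMSO control. Reaction: 10 nM recombinant human TG2, 4 μM dimethylcasein, 16.7 μM dansylcadaverine, 10 mM CaCl2 and glutathione, pH 8.0.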

Data set [3] is described as follows: Caco-2 permeability assay (CacoReady kit). The data set is classed as in vitro ADME. Particulars: human. In outline: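 Papp values come from Caco-2 barrier studies intended to predict oral bioavailability; the manufacturer's procedure for the ready-made kit was followed.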
(Caco-2 cells form a polarised layer with tight junctions and transporters.)

`COC(=O)/C=C/CC[C@H](NC(=O)c1ccnn1C)C(=O)Nc1cccn(CC(=O)NC23CC4(C)CC(C)(CC(C)(C4)C2)C3)c1=O` [III-109, (S,E)-methyl 7-(1-(2-(3,5,7-trimethyl-1-adamantylamino)-2-oxoethyl)-2-oxo-1,2-dihydropyridin-3-ylamino)-6-(1-methyl-1H-pyrazole-5-carboxamido)-7-oxohept-2-enoate] returned a logD in data set [1] of 3 to 5. The IC50 in data set [2] is less than 25 nM. The compound also yielded a Papp in data set [3] of less than 1 ×10⁻⁶ cm/s.

Turning to `COC(=O)/C=C/CC[C@H](NC(=O)c1snnc1C)C(=O)Nc1cccn(CC(=O)N[C@@H]2C[C@H]3CC[C@@H]2C3)c1=O` [III-110, (S,E)-methyl 7-(1-(2-((1R,2R,4S)-bicyclo[2.2.1]heptan-2-ylamino)-2-oxoethyl)-2-oxo-1,2-dihydropyridin-3-ylamino)-6-(4-methyl-1,2,3-thiadiazole-5-carboxamido)-7-oxohept-2-enoate], the logD in data set [1] is 1 to 3. Also, the IC50 in data set [2] was less than 25 nM. The same compound yielded a Papp in data set [3] of less than 1 ×10⁻⁶ cm/s.

In data set [1], `COC(=O)/C=C/CC[C@H](NC(=O)c1ccnn1C)C(=O)Nc1cccn(CC(=O)N[C@@H]2C[C@H]3CC[C@@H]2C3)c1=O` [III-111, (S,E)-methyl 7-(1-(2-((1R,2R,4S)-bicyclo[2.2.1]heptan-2-ylamino)-2-oxoethyl)-2-oxo-1,2-dihydropyridin-3-ylamino)-6-(1-methyl-1H-pyrazole-5-carboxamido)-7-oxohept-2-enoate] returned a logD of 1 to 3. Besides, the IC50 in data set [2] was less than 25 nM. This compound also gave a Papp in data set [3] of less than 1 ×10⁻⁶ cm/s.

In data set [1], `COC(=O)/C=C/CC[C@H](NC(=O)c1snnc1C)C(=O)Nc1cccn(CC(=O)NC23CC4CC(C)(CC(C)(C4)C2)C3)c1=O` [III-112, (S,E)-methyl 7-(1-(2-(3,5-dimethyladamantane-1-amino)-2-oxoethyl)-2-oxo-1,2-dihydropyridin-3-ylamino)-6-(4-methyl-1,2,3-thiadiazole-5-carboxamido)-7-oxohept-2-enoate] yielded a logD of 1 to 3. Also, in data set [2], the IC50 is less than 25 nM. In data set [3], this compound showed a Papp of less than 1 ×10⁻⁶ cm/s.

`COC(=O)/C=C/CC[C@H](NC(=O)c1ccnn1C)C(=O)Nc1cccn(CC(=O)NC23CC4CC(C)(CC(C)(C4)C2)C3)c1=O` [III-113, (S,E)-methyl 7-(1-(2-(3,5-dimethyladamantane-1-amino)-2-oxoethyl)-2-oxo-1,2-dihydropyridin-3-ylamino)-6-(1-methyl-1H-pyrazole-5-carboxamido)-7-oxohept-2-enoate] came in with a log distribution coefficient (logD) in data set [1] of 1 to 3. The IC50 in data set [2] is less than 25 nM. This compound displayed a Papp in data set [3] of less than 1 ×10⁻⁶ cm/s.

Consider `COC(=O)/C=C/CC[C@H](NC(=O)c1cnnn1C)C(=O)Nc1cccn(CC(=O)NC23CC4CC(C)(CC(C)(C4)C2)C3)c1=O` [III-114, (S,E)-methyl 7-(1-(2-(3,5-dimethyladamantane-1-amino)-2-oxoethyl)-2-oxo-1,2-dihydropyridin-3-ylamino)-6-(1-methyl-1H-1,2,3-triazole-5-carboxamido)-7-oxohept-2-enoate], for which the logD in data set [1] fell in the range of 1 to 3. Further, the half-inhibitory concentration (IC50) in data set [2] was less than 25 nM. Moreover, in data set [3], the Papp was less than 1 ×10⁻⁶ cm/s.

`COC(=O)/C=C/CC[C@H](NC(=O)c1snnc1C)C(=O)Nc1cccn(CC(=O)N[C@@H]2C[C@@H]3CC[C@H]2C3)c1=O` [III-115, (S,E)-methyl 7-(1-(2-((1S,2R,4R)-bicyclo[2.2.1]heptan-2-ylamino)-2-oxoethyl)-2-oxo-1,2-dihydropyridin-3-ylamino)-6-(4-methyl-1,2,3-thiadiazole-5-carboxamido)-7-oxohept-2-enoate] had a logD in data set [1] of 1 to 3. Moreover, the IC50 in data set [2] was less than 25 nM. The same compound yielded a Papp in data set [3] of less than 1 ×10⁻⁶ cm/s.

The compound `COC(=O)/C=C/CC[C@H](NC(=O)c1cnnn1C)C(=O)Nc1cccn(CC(=O)N[C@@H]2C[C@@H]3CC[C@H]2C3)c1=O` [III-116, (S,E)-methyl 7-(1-(2-((1S,2R,4R)-bicyclo[2.2.1]heptan-2-ylamino)-2-oxoethyl)-2-oxo-1,2-dihydropyridin-3-ylamino)-6-(1-methyl-1H-1,2,3-triazole-5-carboxamido)-7-oxohept-2-enoate] displayed a logD in data set [1] of less than 1. In data set [2], the IC50 was less than 25 nM. Moreover, the Papp in data set [3] is less than 1 ×10⁻⁶ cm/s.

On to `COC(=O)/C=C/CC[C@H](NC(=O)c1ccnn1C)C(=O)Nc1cccn(CC(=O)N[C@@H]2C[C@@H]3CC[C@H]2C3)c1=O` [III-117, (S,E)-methyl 7-(1-(2-((1S,2R,4R)-bicyclo[2.2.1]heptan-2-ylamino)-2-oxoethyl)-2-oxo-1,2-dihydropyridin-3-ylamino)-6-(1-methyl-1H-pyrazole-5-carboxamido)-7-oxohept-2-enoate], for which the logD in data set [1] was in the range of 1 to 3. In data set [2], the 50% inhibitory concentration (IC50) is less than 25 nM. This compound also returned a Papp in data set [3] of less than 1 ×10⁻⁶ cm/s.

Compound `COC(=O)/C=C/CC[C@H](NC(=O)c1snnc1C)C(=O)Nc1cccn(CC(=O)NC2C3CC4CC(C3)CC2C4)c1=O` (stereo partly drawn) [III-118, (S,E)-methyl 7-(1-(2-(2-adamantylamino)-2-oxoethyl)-2-oxo-1,2-dihydropyridin-3-ylamino)-6-(4-methyl-1,2,3-thiadiazole-5-carboxamido)-7-oxohept-2-enoate] registered a logD in data set [1] of 1 to 3. In addition, in data set [2], the IC50 is less than 25 nM. Further, in data set [3], the Papp is less than 1 ×10⁻⁶ cm/s.

In data set [1], `COC(=O)/C=C/CC[C@H](NC(=O)c1ccnn1C)C(=O)Nc1cccn(CC(=O)NC2C3CC4CC(C3)CC2C4)c1=O` (stereo partly drawn) [III-119, (S,E)-methyl 7-(1-(2-(2-adamantylamino)-2-oxoethyl)-2-oxo-1,2-dihydropyridin-3-ylamino)-6-(1-methyl-1H-pyrazole-5-carboxamido)-7-oxohept-2-enoate] yielded a logD of less than 1. Also, the IC50 in data set [2] is less than 25 nM. In data set [3], this compound yielded a Papp of less than 1 ×10⁻⁶ cm/s.

For `COC(=O)/C=C/CC[C@H](NC(=O)c1snnc1C)C(=O)Nc1cccn(CC(=O)N[C@H]2C[C@H]3CC[C@]2(C)C3(C)C)c1=O` [III-120, (S,E)-methyl 6-(4-methyl-1,2,3-thiadiazole-5-carboxamido)-7-oxo-7-(2-oxo-1-(2-oxo-2-((1R,2S,4R)-1,7,7-trimethylbicyclo[2.2.1]heptan-2-ylamino)ethyl)-1,2-dihydropyridin-3-ylamino)hept-2-enoate], the logD in data set [1] was 1 to 3. In addition, in data set [2], the IC50 was less than 25 nM. Also, the apparent permeability coefficient (Papp) in data set [3] was less than 1 ×10⁻⁶ cm/s.

With `COC(=O)/C=C/CC[C@H](NC(=O)c1cnnn1C)C(=O)Nc1cccn(CC(=O)N[C@H]2C[C@H]3CC[C@]2(C)C3(C)C)c1=O` [III-121, (S,E)-methyl 6-(1-methyl-1H-1,2,3-triazole-5-carboxamido)-7-oxo-7-(2-oxo-1-(2-oxo-2-((1R,2S,4R)-1,7,7-trimethylbicyclo[2.2.1]heptan-2-ylamino)ethyl)-1,2-dihydropyridin-3-ylamino)hept-2-enoate], the log distribution coefficient (logD) in data set [1] is 1 to 3. The IC50 in data set [2] was less than 25 nM. The same compound registered a Papp in data set [3] of less than 1 ×10⁻⁶ cm/s.

Take `COC(=O)/C=C/CC[C@H](NC(=O)c1ccnn1C)C(=O)Nc1cccn(CC(=O)N[C@H]2C[C@H]3CC[C@]2(C)C3(C)C)c1=O` [III-122, (S,E)-methyl 6-(1-methyl-1H-pyrazole-5-carboxamido)-7-oxo-7-(2-oxo-1-(2-oxo-2-((1R,2S,4R)-1,7,7-trimethylbicyclo[2.2.1]heptan-2-ylamino)ethyl)-1,2-dihydropyridin-3-ylamino)hept-2-enoate]: the pH-dependent lipophilicity (logD) in data set [1] was 1 to 3. Also, in data set [2], the IC50 fell in the range of 25 to 250 nM. Moreover, the Papp in data set [3] is less than 1 ×10⁻⁶ cm/s.

Compound `COC(=O)/C=C/CC[C@H](NC(=O)c1sc(C(F)(F)F)nc1C)C(=O)Nc1cccn(CC(=O)NC23CC4CC(C)(CC(C)(C4)C2)C3)c1=O` [III-123, (S,E)-methyl 7-(1-(2-(3,5-dimethyladamantane-1-amino)-2-oxoethyl)-2-oxo-1,2-dihydropyridin-3-ylamino)-6-(4-methyl-2-(trifluoromethyl)thiazole-5-carboxamido)-7-oxohept-2-enoate] showed a logD in data set [1] of 3 to 5. In addition, the IC50 in data set [2] was less than 25 nM. The compound also returned an apparent permeability coefficient (Papp) in data set [3] of 1 to 10 ×10⁻⁶ cm/s.

Compound `COC(=O)/C=C/CC[C@H](NC(=O)c1cc(Cl)sc1Cl)C(=O)Nc1cccn(CC(=O)NC23CC4CC(C)(CC(C)(C4)C2)C3)c1=O` [III-124, (S,E)-methyl 6-(2,5-dichlorothiophene-3-carboxamido)-7-(1-(2-(3,5-dimethyladamantane-1-amino)-2-oxoethyl)-2-oxo-1,2-dihydropyridin-3-ylamino)-7-oxohept-2-enoate] showed a logD in data set [1] of 3 to 5. For the same compound, the IC50 in data set [2] was less than 25 nM. In data set [3], this compound yielded a Papp of 1 to 10 ×10⁻⁶ cm/s.
